Assay [1] deals with T1, Estrogen receptor (Homo sapiens) (UniProt P03372).
T1 sequence (whole entry): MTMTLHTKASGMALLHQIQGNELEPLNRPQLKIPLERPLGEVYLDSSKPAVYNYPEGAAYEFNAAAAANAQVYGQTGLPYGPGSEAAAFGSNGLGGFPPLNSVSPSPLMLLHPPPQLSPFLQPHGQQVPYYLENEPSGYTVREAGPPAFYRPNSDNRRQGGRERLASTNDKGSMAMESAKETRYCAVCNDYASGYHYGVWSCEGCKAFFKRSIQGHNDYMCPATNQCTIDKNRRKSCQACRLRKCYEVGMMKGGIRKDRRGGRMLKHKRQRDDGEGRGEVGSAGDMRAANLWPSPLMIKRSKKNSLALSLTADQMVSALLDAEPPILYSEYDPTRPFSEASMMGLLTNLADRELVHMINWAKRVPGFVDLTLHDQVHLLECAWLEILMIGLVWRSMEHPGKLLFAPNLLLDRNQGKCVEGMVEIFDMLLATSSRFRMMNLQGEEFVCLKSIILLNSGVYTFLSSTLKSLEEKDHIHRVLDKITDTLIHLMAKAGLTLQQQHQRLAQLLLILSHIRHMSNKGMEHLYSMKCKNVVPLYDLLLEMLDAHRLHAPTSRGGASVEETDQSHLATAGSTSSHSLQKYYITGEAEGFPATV
Put plainly: Displacement of [3H]estradiol from full length human ERalpha by competitive radiometric binding assay relative to estradiol. For orientation: Loss of bound radioactivity is the signal in a displacement assay; it reports binding, not function.

In a further assay the test system is MCF7. The assay is described as follows: Antiproliferative activity against human MCF7 cells assessed as reduction in cell viability incubated for 6 days by WST1 dye based assay. Type of assay: functional. Conditions: MCF7, 144 h. Background: Formazan colour is commonly taken as a measure of viable cells.
In a further assay the target is T2, Estrogen receptor (Homo sapiens, UniProt P03372).
T2 sequence (P03372 whole entry): T1 sequence (whole entry)
The assay is described as follows: Induction of ERalpha protein degradation in human MCF7 cells assessed as reduction in ERalpha protein levels incubated for 24 hrs by In-cell western assay. Type of assay: cell-based. Conditions: for DC50: mcf7, read-out: IC50 (the source's name).

pIC50: −log10 of the molar value.

What is called pIC50 is the IC50 on a negative log10 scale, so that one unit is a factor of ten. `O=C(NCCCCOc1ccc(C(=C2C3CC4CC(C3)CC2C4)c2ccc(O)cc2)cc1)[C@H]1C[C@@H]2C=C[C@H]1C2` gave an RBA in assay [1] of 37%. Moreover, the pIC50 in the assay with MCF7 was 8.05.

As for `O=C(NCCCCOc1ccc(C(=C2C3CC4CC(C3)CC2C4)c2ccc(O)cc2)cc1)C12CC3CC(CC1C3)C2`, the pIC50 at Estrogen receptor was 8.70.

In the case of `O=C(NCCCOc1ccc(C(=C2C3CC4CC(C3)CC2C4)c2ccc(O)cc2)cc1)C12CC3CC(CC(C3)C1)C2`, on Estrogen receptor, the DC50 was 3 nM.

On to `O=C(NCCCCOc1ccc(C(=C2C3CC4CC(C3)CC2C4)c2ccc(O)cc2)cc1)C1CCCCC1`, for which the DC50 on Estrogen receptor stood at 0.4 nM.

Source of the values: ChEMBL document CHEMBL4376905, “Selective Estrogen Receptor Degraders for the Potential Treatment of Cancer” (ACS Med Chem Lett, 2020).
